Measured values as given in patent US11034718B2, “C-3 novel triterpenone with C-17 reverse amide derivatives as HIV inhibitors” (HETERO LABS LIMITED, priority 2015, dated 2021).
Like-named read-outs stand apart in the source and are kept apart here.

System: HIV-1 strain 92HT599
Assay: Antiviral activity against HIV-1 strain 92HT599 in MT2 cells (p24 estimation)
Format: cell-based
Settings: HIV-1 92HT599, ~96 hours
Procedure: Example 77: Evaluation of Compounds Antiviral Activity Against HIV-1 Strain 92HT599 in MT2 Cells
MT2 cells were infected with HIV-1 strain 92HT599 (10 TCID 50/30000 cells). The infected cells were plated at the concentration of 30,000 cells per well in 96 well plate. Test compound was added to the micro plate in defined format with the final concentration of DMSO (vehicle) is not more than 1%. Incubation was carried out in CO2 incubator for ˜96 hours for viral infection. At the end of incubation period an aliquot from each well was taken for p24 estimation. The quantitation of p24 is an index for antiviral activity of the compound. Percent inhibition was calculated with reference to control values (vehicle controls). p24 estimation was carried out using Advance biosciences kit as per the procedure detailed by supplier.

[1] = Human immunodeficiency virus 1, 0% serum binding assay, read-out: IC50 0% serum
[2] = Human immunodeficiency virus 1, 40% serum binding assay, read-out: IC50 40% serum

SMILES	IC50 [1] [nM]	IC50 [2] [nM]
CC(C)C1=C2[C@H]3CC[C@@H]4[C@@]5(C)CC[C@H](OC(=O)[C@H]6C[C@@H](C(=O)O)C6(C)C)C(C)(C)[C@@H]5CC[C@@]4(C)[C@]3(C)CC[C@@]2(NC(=O)C(C)(C)NC(=O)C2(c3ccc(Cl)cc3)CC2)CC1=O [Example 2, (1R,3S)-3-((((3aR,5aR,5bR,7aR,9S,11aR,11bR,13aS)-3a-(2-(1-(4-chlorophenyl)cyclopropane-1-carboxamido)-2-methylpropanamido)-1-isopropyl-5a,5b,8,8,11a-pentamethyl-2-oxo-3,3a,4,5,5a,5b,6,7,7a,8,9,10,11,11a,11b,12,13,13a-octadecahydro-2H-cyclopenta[a]chrysen-9-yl)oxy)carbonyl)-2,2-dimethylcyclobutane-1-carboxylic acid]	3.01 to 10	< 50
CC(C)C1=C2[C@H]3CC[C@@H]4[C@@]5(C)CC[C@H](OC(=O)[C@H]6C[C@@H](C(=O)O)C6(C)C)C(C)(C)[C@@H]5CC[C@@]4(C)[C@]3(C)CC[C@@]2(NC(=O)C(C)(C)NC(=O)c2ccccc2)CC1=O [Example 3, (1R,3S)-3-((((3aR,5aR,5bR,7aR,9S,11aR,11bR,13aS)-3a-(2-benzamido-2-methylpropanamido)-1-isopropyl-5a,5b,8,8,11a-pentamethyl-2-oxo-3,3a,4,5,5a, 5b,6,7,7a,8,9,10,11,11a,11b,12,13,13a-octadecahydro-2H-cyclopenta[a]chrysen-9-yl)oxy)carbonyl)-2,2-dimethylcyclobutane-1-carboxylic acid]	< 3	< 50
CC(C)C1=C2[C@H]3CC[C@@H]4[C@@]5(C)CC[C@H](OC(=O)[C@H]6C[C@@H](C(=O)O)C6(C)C)C(C)(C)[C@@H]5CC[C@@]4(C)[C@]3(C)CC[C@@]2(NC(=O)C(C)(C)NC(=O)c2ccc(Cl)c(Cl)c2)CC1=O [Example 4, (1R,3S)-3-((((3aR,5aR,5bR,7aR,9S,11aR,11bR,13aS)-3a-(2-(3,4-dichlorobenzamido)-2-methylpropanamido)-1-isopropyl-5a,5b,8,8,11a-pentamethyl-2-oxo-3,3a,4,5,5a,5b,6,7,7a,8,9,10,11,11a,11b,12,13,13a-octadecahydro-2H-cyclopenta[a]chrysen-9-yl)oxy)carbonyl)-2,2-dimethylcyclobutane-1-carboxylic acid]	< 3	< 50
CC(C)C1=C2[C@H]3CC[C@@H]4[C@@]5(C)CC[C@H](OC(=O)[C@H]6C[C@@H](C(=O)O)C6(C)C)C(C)(C)[C@@H]5CC[C@@]4(C)[C@]3(C)CC[C@@]2(NC(=O)C(C)(C)NC(=O)c2ccc(N)nc2)CC1=O [Example 6, (1R,3S)-3-((((3aR,5aR,5bR,7aR,9S,11aR,11bR,13aS)-3a-(2-(6-aminonicotinamido)-2-methylpropanamido)-1-isopropyl-5a,5b,8,8,11a-pentamethyl-2-oxo-3,3a,4,5,5a,5b,6,7,7a,8,9,10,11,11a,11b,12,13,13a-octadecahydro-2H-cyclopenta[a]chrysen-9-yl)oxy)carbonyl)-2,2-dimethylcyclobutane-1-carboxylic acid]	< 3	50 to 200
CC(C)C1=C2[C@H]3CC[C@@H]4[C@@]5(C)CC[C@H](OC(=O)[C@H]6C[C@@H](C(=O)O)C6(C)C)C(C)(C)[C@@H]5CC[C@@]4(C)[C@]3(C)CC[C@@]2(NC(=O)C(C)(C)NC(=O)[C@@H]2CCCN2C(=O)OC(C)(C)C)CC1=O [Example 8]	< 3	< 50
